We go through 15 molecules from ChEMBL document CHEMBL5260848, “Recent advancements in the development of bioactive pyrazoline derivatives” (Eur J Med Chem, 2020).

In data set [1] the test system is Aspergillus niger. Description: Antifungal activity against Aspergillus niger incubated for 24 hrs by disc diffusion method. Format: functional. Background: A growth-free zone around the sample is the usual read-out of agar diffusion tests.
The subject of data set [2] is Mycobacterium tuberculosis. Description: microbe, parasite or virus in culture. As to conditions: 120 h.
Data set [3] concerns Escherichia coli. The data set can be described thus: Antibacterial activity against Escherichia coli incubated for 24 hrs by disc diffusion method. The format is functional.
Data set [4] concerns Bacillus subtilis. The data set can be described thus: microbe, parasite or virus in culture. The settings on record: 24 h.
Data set [5] deals with Aspergillus fumigatus. Description: Antifungal activity against Aspergillus fumigatus incubated for 24 hrs by disc diffusion method. Format: functional.
The subject of data set [6] is Staphylococcus aureus. Description: microbe, parasite or virus in culture. As to conditions: 24 h.
In data set [7] the test system is Candida albicans. The data set can be described thus: microbe, parasite or virus in culture. The settings on record: 24 h.
The subject of data set [8] is Pseudomonas aeruginosa. The data set can be described thus: microbe, parasite or virus in culture. The settings on record: 24 h.
For data set [9], the system named is Aspergillus flavus. The data set can be described thus: Antifungal activity against Aspergillus flavus incubated for 24 hrs by disc diffusion method. The format is functional.
Data set [10] concerns the target T1, Amine oxidase [flavin-containing] A (Homo sapiens, UniProt P21397).
T1 sequence (P21397 whole entry): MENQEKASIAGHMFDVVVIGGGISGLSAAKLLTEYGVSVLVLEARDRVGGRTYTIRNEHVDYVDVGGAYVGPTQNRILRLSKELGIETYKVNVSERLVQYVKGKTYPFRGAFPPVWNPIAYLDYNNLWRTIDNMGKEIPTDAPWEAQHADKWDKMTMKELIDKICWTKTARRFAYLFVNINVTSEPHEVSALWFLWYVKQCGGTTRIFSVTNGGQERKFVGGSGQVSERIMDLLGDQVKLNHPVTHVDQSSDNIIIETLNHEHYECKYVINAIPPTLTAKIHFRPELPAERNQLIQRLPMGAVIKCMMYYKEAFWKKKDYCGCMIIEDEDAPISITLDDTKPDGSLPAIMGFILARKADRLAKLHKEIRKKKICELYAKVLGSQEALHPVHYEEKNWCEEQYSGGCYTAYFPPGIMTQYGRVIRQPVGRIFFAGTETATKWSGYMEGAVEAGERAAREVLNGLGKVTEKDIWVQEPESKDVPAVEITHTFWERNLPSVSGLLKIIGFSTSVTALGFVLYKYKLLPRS

Data set [11] relates to PC-12. The data set can be described thus: Cytotoxicity against rat PC-12 cells assessed as reduction in cell viability relative to control. The format is toxicity, cell-based.
Data set [12] can be described thus: Cytotoxicity against rat PC-12 cells assessed as reduction in cell viability. Format: toxicity, cell-based.

In brackets after ≈: the same amount, converted by molar mass.

Consider `O=C(NNS(=O)(=O)c1ccc(F)cc1)N1N=C(c2ccccc2)CC1c1ccc(F)cc1` (stereo unspecified), for which the MIC stood at 25 µg/mL (≈ 54.8 µM) in data set [1]; 0.8 µg/mL (≈ 1.75 µM) in data set [2]; 25 µg/mL (≈ 54.8 µM) in [3]; 25 µg/mL (≈ 54.8 µM) in data set [4]; 25 µg/mL (≈ 54.8 µM) in data set [5]; 25 µg/mL (≈ 54.8 µM) in data set [6]. For the same molecule, the MIC in [7], in data set [8] and in data set [9] was 25 µg/mL (≈ 54.8 µM) each time.
Consider `O=C(NNS(=O)(=O)c1ccccc1)N1N=C(c2ccccc2)CC1c1ccc(Br)cc1` (stereo unspecified), for which the MIC in [1] came to 25 µg/mL (≈ 50.1 µM); in data set [2], 0.8 µg/mL (≈ 1.6 µM); in data set [3], 25 µg/mL (≈ 50.1 µM); in data set [4] it was 25 µg/mL (≈ 50.1 µM); in data set [5], 25 µg/mL (≈ 50.1 µM); in [6], 25 µg/mL (≈ 50.1 µM). The MIC in data set [7], in data set [8] and in data set [9] was 25 µg/mL (≈ 50.1 µM) each time.
As usually defined, the Ki is the equilibrium dissociation constant of an inhibitor or competing ligand from its target. A higher Ki goes with weaker binding. In data set [10], `Cc1ccc(C2=NN(C(=S)Nc3ccccc3)C(c3ccc(F)cc3)C2)cc1` (stereo unspecified) displayed a Ki of 0.1 nM.
Turning to `O=C(NNS(=O)(=O)c1ccc(F)cc1)N1N=C(c2ccccc2)CC1c1ccc(Cl)cc1` (stereo unspecified), the MIC was determined as 25 µg/mL (≈ 52.9 µM) in [1]; 0.8 µg/mL (≈ 1.69 µM) in data set [2]; 25 µg/mL (≈ 52.9 µM) in [3]; 25 µg/mL (≈ 52.9 µM) in data set [4]; 25 µg/mL (≈ 52.9 µM) in data set [5]; 25 µg/mL (≈ 52.9 µM) in [6]. The MIC in [7], in data set [8] and in [9] was 25 µg/mL (≈ 52.9 µM) throughout.
In the case of `O=C(NNS(=O)(=O)c1ccc(F)cc1)N1N=C(c2ccc(F)cc2)CC1c1ccc(F)cc1` (stereo unspecified), the MIC came to 25 µg/mL (≈ 52.7 µM) in data set [1]; 0.8 µg/mL (≈ 1.69 µM) in data set [2]; 25 µg/mL (≈ 52.7 µM) in data set [3]; 25 µg/mL (≈ 52.7 µM) in data set [4]; 25 µg/mL (≈ 52.7 µM) in [5]; 25 µg/mL (≈ 52.7 µM) in data set [6]. Besides, the MIC in data set [7], in data set [8] and in data set [9] was 25 µg/mL (≈ 52.7 µM) each time.
In the case of `O=C(NNS(=O)(=O)c1ccc(F)cc1)N1N=C(c2ccccc2)CC1c1ccccc1` (stereo unspecified), the MIC in data set [1] is 25 µg/mL (≈ 57 µM); in data set [2], 0.8 µg/mL (≈ 1.82 µM); in data set [3], 25 µg/mL (≈ 57 µM); in data set [4], 25 µg/mL (≈ 57 µM); in [5] it was 25 µg/mL (≈ 57 µM); in data set [6], 25 µg/mL (≈ 57 µM). Besides, the MIC in data set [7], in data set [8] and in data set [9] was 25 µg/mL (≈ 57 µM) in each case.
With `Cc1ccc(C2CC(c3ccccc3)=NN2C(=O)NNS(=O)(=O)c2ccc(F)cc2)cc1` (stereo unspecified), the MIC worked out at 25 µg/mL (≈ 55.2 µM) in [1]; 0.8 µg/mL (≈ 1.77 µM) in [2]; 25 µg/mL (≈ 55.2 µM) in data set [3]; 25 µg/mL (≈ 55.2 µM) in data set [4]; 25 µg/mL (≈ 55.2 µM) in data set [5]; 25 µg/mL (≈ 55.2 µM) in [6]. Besides, the MIC in [7], in data set [8] and in data set [9] was 25 µg/mL (≈ 55.2 µM) throughout.
The IC50 is the concentration that inhibits the measured activity by half. As for `c1ccc(N2N=C(c3cccs3)CC2c2ccc3c(c2)OCO3)cc1` (stereo unspecified), the Activity in data set [11] is on record as 3%. In addition, in data set [12], the IC50 is 12 µg/mL (≈ 34.4 µM).
On the same counts, the results for `Cc1ccc(C2CC(c3ccco3)=NN2c2ccc(C#N)cc2)cc1` (stereo unspecified) are 3% and 12 µg/mL (≈ 36.7 µM).
The matching figures for `NS(=O)(=O)c1ccc(N2N=C(c3cccs3)CC2c2ccc3c(c2)OCO3)cc1` (stereo unspecified): 3% and 12 µg/mL (≈ 28.1 µM).
The matching figures for `N#Cc1ccc(N2N=C(c3cccs3)CC2c2ccc3c(c2)OCO3)cc1` (stereo unspecified): 3% and 12 µg/mL (≈ 32.1 µM).
For `Cc1ccc(C2CC(c3ccco3)=NN2c2ccc(F)cc2)cc1` (stereo unspecified), in data set [11], the Activity was 3%. Also, the IC50 in data set [12] came to 12 µg/mL (≈ 37.5 µM).
The matching figures for `Cc1ccc(C2CC(c3ccco3)=NN2c2ccc(Cl)cc2)cc1` (stereo unspecified): 3% and 12 µg/mL (≈ 35.6 µM).
Turning to `Cc1ccc(C2CC(c3ccco3)=NN2c2ccc(S(N)(=O)=O)cc2)cc1` (stereo unspecified), in data set [11], the Activity worked out at 3%. In addition, the IC50 in [12] turned out to be 12 µg/mL (≈ 31.5 µM).
On the same counts, the results for `CS(=O)(=O)c1ccc(N2N=C(c3cccs3)CC2c2ccc3c(c2)OCO3)cc1` (stereo unspecified) are 77% and greater than 400 µg/mL.
